System: 926638-142-R-J1-PDC complex spheroid viability
Experiment: Anticancer human tumor 926638-142-R-J1-PDC patient-derived endometrial carcinoma cell line growth inhibition [POLQ]
Settings: for IC50: curve of first compound; for viability, T/C: stronger effect = lower value
Method in brief: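 Growth inhibition in 3D: complex spheroids (tumor PDC, HUVEC, MSC) treated with POLQ inhibitor combinations; where Cmax unknown, highest tested concentration 10 microM, except SN-38 at 1 microM.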

[1] = second compound 0.0316 µM, first compound 0.0316 µM
[2] = second compound 0.0316 µM, first compound 0.1 µM
[3] = second compound 0.0316 µM, first compound 0.316 µM
[4] = second compound 0.0316 µM, first compound 1 µM
[5] = second compound 0.0316 µM, first compound 3.16 µM
[6] = second compound 0.0316 µM, first compound 10 µM
[7] = second compound 0.1 µM, first compound 0.0316 µM
[8] = second compound 0.1 µM, first compound 0.1 µM
[9] = second compound 0.1 µM, first compound 0.316 µM
[10] = second compound 0.1 µM, first compound 1 µM
[11] = second compound 0.1 µM, first compound 3.16 µM
[12] = second compound 0.1 µM, first compound 10 µM
[13] = second compound 0.316 µM, first compound 0.0316 µM
[14] = second compound 0.316 µM, first compound 0.1 µM
[15] = second compound 0.316 µM, first compound 0.316 µM
[16] = second compound 0.316 µM, first compound 1 µM
[17] = second compound 0.316 µM, first compound 3.16 µM
[18] = second compound 0.316 µM, first compound 10 µM
[19] = second compound 1 µM, first compound 0.0316 µM
[20] = second compound 1 µM, first compound 0.1 µM
[21] = second compound 1 µM, first compound 0.316 µM
[22] = second compound 1 µM, first compound 1 µM
[23] = second compound 1 µM, first compound 3.16 µM
[24] = second compound 1 µM, first compound 10 µM
[25] = second compound 3.16 µM, first compound 0.0316 µM
[26] = second compound 3.16 µM, first compound 0.1 µM
[27] = second compound 3.16 µM, first compound 0.316 µM
[28] = second compound 3.16 µM, first compound 1 µM
[29] = second compound 3.16 µM, first compound 3.16 µM
[30] = second compound 3.16 µM, first compound 10 µM
[31] = second compound 10 µM, first compound 0.0316 µM
[32] = second compound 10 µM, first compound 0.1 µM
[33] = second compound 10 µM, first compound 0.316 µM
[34] = second compound 10 µM, first compound 1 µM
[35] = second compound 10 µM, first compound 3.16 µM
[36] = second compound 10 µM, first compound 10 µM
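Further: spheroids exposed to drugs for one week before readout.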
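Wherever viability, T/C is given: percent viability relative to DMSO vehicle control wells set as 100%.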

C=CC(=O)N1CCN(c2nc(=O)n(-c3c(C)ccnc3C(C)C)c3nc(-c4c(O)cccc4F)c(F)cc23)C(C)C1 (stereo unspecified) + Cc1cccc(N(C)C(=O)C2C(O)CCN2c2nc(C)cc(C(F)(F)F)c2C#N)c1
IC50 (second compound 0.0316 µM): > 10000 nM | IC50 (second compound 0.1 µM): > 10000 nM | IC50 (second compound 0.316 µM): > 10000 nM | IC50 (second compound 1 µM): > 10000 nM | IC50 (second compound 3.16 µM): 6590 nM | IC50 (second compound 10 µM): > 10000 nM | viability, T/C [1]: 84.5% | viability, T/C [2]: 78% | viability, T/C [3]: 67.2% | viability, T/C [4]: 76.1% | viability, T/C [5]: 66% | viability, T/C [6]: 59.1% | viability, T/C [7]: 82.8% | viability, T/C [8]: 78.7% | viability, T/C [9]: 94% | viability, T/C [10]: 76.6% | viability, T/C [11]: 70.8% | viability, T/C [12]: 65.5% | viability, T/C [13]: 97.4% | viability, T/C [14]: 90.3% | viability, T/C [15]: 91.5% | viability, T/C [16]: 74.2% | viability, T/C [17]: 70% | viability, T/C [18]: 55.6% | viability, T/C [19]: 74.8% | viability, T/C [20]: 84.7% | viability, T/C [21]: 79.2% | viability, T/C [22]: 69.9% | viability, T/C [23]: 72.7% | viability, T/C [24]: 49.6% | viability, T/C [25]: 91.8% | viability, T/C [26]: 82.7% | viability, T/C [27]: 84.7% | viability, T/C [28]: 86% | viability, T/C [29]: 74.1% | viability, T/C [30]: 36.1% | viability, T/C [31]: 90.7% | viability, T/C [32]: 80.8% | viability, T/C [33]: 94.9% | viability, T/C [34]: 77% | viability, T/C [35]: 78% | viability, T/C [36]: 52.9%

CC1COCCN1c1cc(C2(O)CC3CCC(C2)O3)c2cnn(-c3ccn[nH]3)c2n1 (stereo unspecified) + Cc1cccc(N(C)C(=O)C2C(O)CCN2c2nc(C)cc(C(F)(F)F)c2C#N)c1
IC50 (second compound 0.0316 µM): 173 nM | IC50 (second compound 0.1 µM): 220 nM | IC50 (second compound 0.316 µM): 194 nM | IC50 (second compound 1 µM): 201 nM | IC50 (second compound 3.16 µM): 143 nM | IC50 (second compound 10 µM): 198 nM | viability, T/C [1]: 102% | viability, T/C [2]: 64.7% | viability, T/C [3]: 34.5% | viability, T/C [4]: 13.3% | viability, T/C [5]: 8.43% | viability, T/C [6]: 2.27% | viability, T/C [7]: 100% | viability, T/C [8]: 79.8% | viability, T/C [9]: 35.8% | viability, T/C [10]: 12.2% | viability, T/C [11]: 6.79% | viability, T/C [12]: 1.49% | viability, T/C [13]: 88.7% | viability, T/C [14]: 67.5% | viability, T/C [15]: 37.9% | viability, T/C [16]: 11.6% | viability, T/C [17]: 9.91% | viability, T/C [18]: 1.44% | viability, T/C [19]: 85.7% | viability, T/C [20]: 71% | viability, T/C [21]: 35.8% | viability, T/C [22]: 14% | viability, T/C [23]: 7.71% | viability, T/C [24]: 1.6% | viability, T/C [25]: 85.9% | viability, T/C [26]: 61% | viability, T/C [27]: 26.1% | viability, T/C [28]: 13.9% | viability, T/C [29]: 7.14% | viability, T/C [30]: 1.53% | viability, T/C [31]: 97.7% | viability, T/C [32]: 72.9% | viability, T/C [33]: 33.5% | viability, T/C [34]: 13.2% | viability, T/C [35]: 6.57% | viability, T/C [36]: 1.3%

CCc1cc2c(N3CCc4c(cc(Cn5ccnc5)cc4-c4cn(C)nc4C(F)(F)F)C3=O)ccnc2c(OC)n1 + Cc1cccc(N(C)C(=O)C2C(O)CCN2c2nc(C)cc(C(F)(F)F)c2C#N)c1
IC50 (second compound 0.0316 µM): 287 nM | IC50 (second compound 0.1 µM): 356 nM | IC50 (second compound 0.316 µM): 1290 nM | IC50 (second compound 1 µM): 346 nM | IC50 (second compound 3.16 µM): 483 nM | IC50 (second compound 10 µM): 379 nM | viability, T/C [1]: 76.8% | viability, T/C [2]: 74.5% | viability, T/C [3]: 46.7% | viability, T/C [4]: 44.8% | viability, T/C [5]: 38.6% | viability, T/C [6]: 29.6% | viability, T/C [7]: 112% | viability, T/C [8]: 70.1% | viability, T/C [9]: 48.3% | viability, T/C [10]: 45.5% | viability, T/C [11]: 41.8% | viability, T/C [12]: 29.1% | viability, T/C [13]: 70.8% | viability, T/C [14]: 66.1% | viability, T/C [15]: 59% | viability, T/C [16]: 55% | viability, T/C [17]: 40% | viability, T/C [18]: 26.7% | viability, T/C [19]: 83.4% | viability, T/C [20]: 59.4% | viability, T/C [21]: 47% | viability, T/C [22]: 52.7% | viability, T/C [23]: 37.3% | viability, T/C [24]: 33% | viability, T/C [25]: 87.1% | viability, T/C [26]: 70.9% | viability, T/C [27]: 55.5% | viability, T/C [28]: 40.9% | viability, T/C [29]: 32.1% | viability, T/C [30]: 25.7% | viability, T/C [31]: 85.9% | viability, T/C [32]: 59.4% | viability, T/C [33]: 58.4% | viability, T/C [34]: 36.7% | viability, T/C [35]: 34.2% | viability, T/C [36]: 23.6%
